PMC5199130 (Molecular Systems Biology, 2016)

Columns and labels:
MavQ = biological target: T1, MavQ (Legionella pneumophila, UniProt Q5ZRA8)
T1 construct: gene lpg2975

[1] = biological target: RavJ (Lpg0944) 1–230, purified (Legionella pneumophila str. Philadelphia-1) (UniProt Q5ZWY9); assay: crystal structure
crystal structure = biological target: the molecule itself; assay: crystal structure

## Nc1ncnc2c1ncn2[C@@H]1O[C@H](COP(=O)(O)OP(=O)(O)OP(=O)(O)O)[C@@H](O)[C@H]1O [ATP]
MavQ
  ADP-Glo kinase assay: wild‐type MavQ, but not the D147A mutant, possesses robust ATP hydrolysis activity

## CCCCCCCC(=O)OC[C@H](COP(=O)(O)O[C@@H]1[C@H](O)[C@H](O)[C@@H](O)[C@H](O)[C@H]1O)OC(=O)CCCCCCC [PI diC8]
MavQ
  ADP-Glo kinase assay: addition of phosphoinositide to this reaction increased the activity of the wild‐type MavQ fivefold

## LegL1 (Lpg0945) 1–296, purified (from UniProt Q5ZWY8 1-296) (natural protein)
[1]
  stoichiometry N: 1

B1: Lem14 (Lpg1851) 1–220, purified and crystallised (natural protein)
chain: MSFELVAYEKLKGSIRESIITLIKSHNEKAKIIEDKLEYSVKEVSRERQPQVLVLLKTIELLDNSSKEPEDKARVLNALAYYIRDQIAATYKYTSPDNSDFYKSLTISLDLNKDNNPNREDLADMYSALEKFLRSHVYKNSDPRKGYLDKQPFAIKHYSVVDDILELSDRVHKLRHEIIIAARDLHLLQQKPKSSQGGLFSVPSGKEKVTDTHEVANHRL
Crystal structure
  stoichiometry N: 2
